For data set [1], the target named is T1, rabbit gastric H+, K+-ATPase (Oryctolagus cuniculus, UniProt P27112).
T1 construct: using rabbit gastric H^+, K^+-ATPase; from tissue; host or cells: rabbit stomach (gastric preparation; the method of preparation is not described)
Kind of data set: In vitro enzymatic activity assay (inorganic phosphate from ATP hydrolysis). In kind it is biochemical. How it is done: The in vitro enzymatic activity was calculated by measuring the inorganic phosphate produced by the hydrolysis of ATP using rabbit gastric H^+, K^+-ATPase. 0.25 μg enzyme was preincubated at 37°C for 30 min in Tris-HCl buffer (2.0 mL, 50 mM, pH 6.5) containing 5 mM MgCl2, 10 μM valinomycin, 0 or 20 mM KCl, and different concentrations of SH-337 and vonoprazan. The reaction was initiated by adding 5 μL of 5 mM ATP 2Na, and the preparation was incubated for 30 min at 37°C and halted by the addition of 100 μL of malachite green reagent (0.12% malachite green, 7.5% ammonium molybdate, and 11% tween 20 were mixed in a volume ratio of 100 : 25 : 2). H^+, K^+-ATPase activity was calculated after subtracting the enzyme activity in the absence of KCl.

The nature of data set [2]: Metabolite profiling, range over rat and human liver microsomes. The note with it: rat and human microsomes after 30 and 60 min incubation. The class given is in vitro ADME. The protocol: (§1) Liver microsomes (1 mg protein/mL) were suspended in phosphate buffer (50 mM, pH 7.4) containing MgCl2 (6 mM). […] The reactions were initiated at 37°C by the addition of 1 mM NADPH and terminated at 30 min or 60 min (30 min for rat; 60 min for human). The samples were precipitated with acetonitrile at 1 : 2 and further centrifuged; the supernatants were dried with a stream of N2 gas. The residues were reconstituted with 300 μL of 10% acetonitrile/H2O (0.1% TFA) and analyzed by LC-MS/MS. The assays were pursued under the conditions provided in Supplementary Tables S4, S6, S7, and S8.
Background: Liver microsomes are a subcellular fraction often used to study metabolism.

The nature of data set [3]: Metabolite identification and profiling in human liver microsomes. The class given is in vitro ADME. The protocol:
as §1

Data set [4] in a line: Metabolite identification and profiling in rat hepatocytes. In kind it is in vitro ADME. How it is done: (§2) SH-337 was incubated with rat or human hepatocytes at a concentration of 1.0 × 10^6 cells/mL for 60 min or 120 min (rat 60 min, human 120 min) at 37°C in a CO2 incubator. The samples were precipitated with acetonitrile at 1 : 2 and further centrifuged; the supernatants were dried with a stream of N2 gas. The residues were reconstituted with 300 μL of 10% acetonitrile/H2O (0.1% TFA) and analyzed by LC-MS/MS. The assays were pursued under the conditions provided in Supplementary Tables S5–S8.

The nature of data set [5]: Metabolite profiling, range over rat and human hepatocytes. In kind it is in vitro ADME. The following applies: rat and human hepatocytes after 60 and 120 min incubation. How it is done:
as §2

Data set [6] in a line: Metabolite identification and profiling in human hepatocytes. In kind it is in vitro ADME. The protocol: as §2
Data set [7] in a line: Metabolite identification and profiling in rat liver microsomes. The class given is in vitro ADME. The protocol: as §1
The nature of data set [8]: Tissue distribution of SH-337 in rats (LC-MS/MS). In kind it is in vivo, rat. The protocol:
15 SPF male SD rats were randomly divided into 5 groups, three per group. Fasting was for 4 hours. Plasma, heart, liver, and stomach were obtained 0.25, 1, 2, 4, and 24 hours after oral administration of SH-337 (0.4 mg/mL in water) at a dose of 4 mg/kg. At designated time points, rats were anesthetized with ether, and the blood samples were collected via the abdominal aorta. The blood was immediately cooled under ice-chilled conditions and centrifuged at approximately 1500 × g at 4°C for 10 minutes to obtain the plasma. For plasma: 20 μL Std samples in duplicate, QC samples in duplicate, and rat plasma samples were mixed with 60 μL ACN containing IS (200 ng/mL of tolbutamide, 50 ng/mL of propranolol, and 500 ng/mL of Dic) in EP tubes. After the mixture was vortexed for 1 min and then centrifuged for 10 min (13000 rpm, 4°C), transfer 50 μL supernatant to a 96-well plate with 150 μL pure water, shake for 10 min, and finally analyze by LC-MS/MS. For heart and liver: tissue samples were added with 3-folds (w/v) saline in terms of the weight of samples and then homogenated. 20 μL Std samples in duplicate, QC samples in duplicate, and rat heart and liver samples were mixed with 60 μL ACN containing IS (200 ng/mL of tolbutamide, 50 ng/mL of propranolol, and 500 ng/mL of Dic) in EP tubes. After the mixture was vortexed for 1 min and then centrifuged for 10 min (13000 rpm, 4°C), transfer 50 μL supernatant to a 96-well plate with 150 μL pure water, shake for 10 min, and finally analyze by LC-MS/MS. For stomach: tissue samples were added with 3-folds (w/v) saline in terms of the weight of samples and then homogenated. 20 μL Std samples in duplicate, QC samples in duplicate, and rat stomach samples were mixed with 60 μL ACN containing IS (200 ng/mL of tolbutamide, 50 ng/mL of propranolol, and 500 ng/mL of Dic) in EP tubes. After the mixture was vortexed for 1 min and then centrifuged for 10 min (13000 rpm, 4°C), transfer 50 μL supernatant to a 96-well plate with 150 μL pure water, shake for 10 min, and finally analyze by LC-MS/MS.

Data set [9] concerns histamine-stimulated gastric acid secretion. As to the kind of experiment: In vivo inhibition of histamine-stimulated acid secretion in anesthetized rats. Also noted: species or system rat. How it is done:
(§3) 60 SPF SD rats weighing 180-220 g were randomly divided into […]: sham, model, SH-337 (2 mg/kg and 4 mg/kg), vonoprazan (2 mg/kg), males and females are equally divided. Fasting for 24 hours, model and sham groups were treated with deionized water. Drugs and vehicle were given through intragastric administration to rats before anesthesia. 1 h after administration, pylorus was ligated. 5 min later, histamine 2HCl (30 mg/10 mL/kg) was injected subcutaneously. At 3 h after histamine administration, the rats were killed by CO2 asphyxiation. The gastric contents were collected in a 10 mL centrifuge tube after removing their stomachs. Centrifuge at 3000 g for 10 min, and then, determine the total acid output during a 3 h period by 0.1 M NaOH [52, 53]. %Inhibition = (average of modelacid–drugacid)/average of modelacid × 100%.

The target of data set [10] is Na+, K+-ATPase. As to the kind of experiment: In vitro Na+, K+-ATPase activity. In kind it is biochemical.
Data set [11] in a line: Tissue distribution of vonoprazan and its metabolites in rats (previous studies). In kind it is in vivo, rat. The note with it: 1 h after oral 2.0 mg/kg, calculated from data of a previous study, ref [40].
The conditions of data set [12]: cited from earlier work; for Drug concentration, Plasma: 2 mg/kg.
For data set [13] the following is noted: pH 7.4; ref [35], [38], [39]; cited from earlier work.
Data set [14] is described as follows: Human microsomal stability. In kind it is in vitro ADME. The note with it: human, human liver microsomes; read-out: Metabolic stability (t1/2) human. How it is done: (§4) The in vitro metabolic stabilities of selected compounds were performed using human and rat liver microsomes in triplicate as described previously.
Data set [15] can be described thus: Rat microsomal stability. The class given is in vitro ADME. The following applies: rat, rat liver microsomes; read-out: Metabolic stability (t1/2) rat. How it is done: as §4
The test system of data set [16] is 2-DG-stimulated gastric acid secretion. Kind of data set: In vivo inhibition of 2DG-stimulated acid secretion in anesthetized rats. Also noted: species or system rat. The following applies: i.g. 2 mg/kg. The protocol:
as §3
The 2DG-stimulated acid secretion in anesthetized rats was measured as described as for histamine-stimulated acid secretion, with the exception that 5 min after pylorus ligation, 2-DG (200 mg/10 mL/kg) was injected subcutaneously.

For data set [17] the following is noted: ref [43], cited from earlier work.
The mark [18] stands for this setting: AUC0–24, rats, i.g. 2 mg/kg vonoprazan, ref [43].
Setting [19] is: rats, 1 h after oral administration of 2.0 mg/kg, ref [40].
[20] abbreviates: rats, i.g. 2 mg/kg vonoprazan, ref [43].

These results are taken from PMC9343080, “Distribution- and Metabolism-Based Drug Discovery: A Potassium-Competitive Acid Blocker as a Proof of Concept” (Research, 2022).

Where two headings read alike, the source gives them in different places. Marks after values point to notes of the source that are not given here.

For orientation: IC50 means the concentration at which inhibition is half-maximal. Low values mean inhibition by little substance, high ones a need for much substance.

T1 sequence (P27112 whole entry): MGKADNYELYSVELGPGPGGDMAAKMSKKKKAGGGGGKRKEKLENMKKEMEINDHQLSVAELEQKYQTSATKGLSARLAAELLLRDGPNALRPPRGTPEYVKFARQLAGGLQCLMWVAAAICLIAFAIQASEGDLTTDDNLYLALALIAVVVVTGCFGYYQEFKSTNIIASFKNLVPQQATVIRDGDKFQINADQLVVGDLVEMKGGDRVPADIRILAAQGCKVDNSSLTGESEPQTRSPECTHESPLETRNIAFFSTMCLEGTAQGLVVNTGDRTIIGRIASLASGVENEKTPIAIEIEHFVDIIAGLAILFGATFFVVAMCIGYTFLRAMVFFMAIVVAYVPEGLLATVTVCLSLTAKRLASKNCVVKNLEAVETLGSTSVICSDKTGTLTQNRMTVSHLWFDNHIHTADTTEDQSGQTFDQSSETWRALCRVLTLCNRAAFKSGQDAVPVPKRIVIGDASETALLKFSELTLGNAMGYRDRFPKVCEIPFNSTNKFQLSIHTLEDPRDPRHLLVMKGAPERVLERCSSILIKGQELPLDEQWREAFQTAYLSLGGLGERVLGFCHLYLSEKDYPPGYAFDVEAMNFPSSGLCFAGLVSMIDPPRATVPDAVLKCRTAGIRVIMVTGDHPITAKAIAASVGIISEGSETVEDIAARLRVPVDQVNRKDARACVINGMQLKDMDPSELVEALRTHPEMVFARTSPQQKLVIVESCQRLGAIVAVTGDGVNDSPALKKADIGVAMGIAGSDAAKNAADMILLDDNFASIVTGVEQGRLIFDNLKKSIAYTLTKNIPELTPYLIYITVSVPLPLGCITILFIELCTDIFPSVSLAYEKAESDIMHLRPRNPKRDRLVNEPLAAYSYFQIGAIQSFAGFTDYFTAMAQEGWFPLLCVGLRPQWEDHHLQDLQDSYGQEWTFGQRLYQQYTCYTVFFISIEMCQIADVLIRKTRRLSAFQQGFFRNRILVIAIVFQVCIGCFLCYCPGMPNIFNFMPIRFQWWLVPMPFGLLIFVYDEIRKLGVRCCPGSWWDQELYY
T1 sequence (P18597 whole entry partner): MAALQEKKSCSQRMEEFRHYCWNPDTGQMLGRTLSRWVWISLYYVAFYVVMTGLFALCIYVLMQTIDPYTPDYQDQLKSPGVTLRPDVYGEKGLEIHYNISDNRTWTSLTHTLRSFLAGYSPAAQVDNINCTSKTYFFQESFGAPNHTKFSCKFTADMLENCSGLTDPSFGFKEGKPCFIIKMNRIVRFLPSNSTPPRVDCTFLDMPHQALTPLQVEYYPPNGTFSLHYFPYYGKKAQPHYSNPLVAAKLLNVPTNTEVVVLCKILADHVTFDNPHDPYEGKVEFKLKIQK

The compound `CNCc1cc(-c2ccc(O)cc2F)n(S(=O)(=O)c2cccnc2)c1.Cl.Cl` [M-IV, 3-fluoro-4-(4-((methylamino)methyl)-1-(pyridin-3-ylsulfonyl)-1H-pyrrol-2-yl)phenol dihydrochloride] yielded an IC50 in data set [1] of 112 nM. For the same compound, the “Percentage of all SH-337 metabolites in microsomes” value in data set [2] is recorded as 89.4-90.2%. In addition, the “Percentage of all the metabolites except SH-337, HLMs” value in data set [3] (60 min) is recorded as 89.4%. Also, the “Relative peak area, HLMs” value in data set [3] (SH-337 10 µM, 60 min incubation) is listed as 27.8%. Further, the “Relative peak area, RHeps” value in data set [4] (SH-337, rat hepatocytes, 60 min incubation) is 40.3%. The “Percentage of all the metabolites except SH-337, RHeps” value in data set [4] (rat hepatocytes, 60 min) is 56.1%. The “Percentage of all SH-337 metabolites in hepatocytes” value in [5] is recorded as 49.4–56.1%. The “Relative peak area, Hheps” value in data set [6] (SH-337, human hepatocytes, 120 min incubation) is listed as 11.6%. Further, the “Percentage of all the metabolites except SH-337, Hheps” value in data set [6] (human hepatocytes, 120 min) was 49.4%. Moreover, the “Percentage of all the metabolites except SH-337, RLMs” value in data set [7] (30 min) came out at 90.2%. Moreover, the “Relative peak area, RLMs” value in data set [7] (SH-337 10 µM, 30 min incubation) is given as 49%. In [8] (after oral dosing of 4.0 mg/kg SH-337), this compound came in with an AUC0–24 in the liver of 3410 ng·h/g. In addition, the AUC(0-t) in data set [8] (male, SD, rat, plasma, po, rats, i.g. 4 mg/kg SH-337, read-out: AUC0–24, Plasma) worked out at 20.3 ng·h/mL. Besides, in data set [8] (rats, i.g. 4 mg/kg SH-337), the “AUC0–24, Liver” value was 3411.2 ng equiv. h/mL or g and the “AUC0–24, Stomach” value is on record as 94.1 ng equiv. h/mL or g.
As to `CNCc1cc(-c2ccccc2F)n(S(=O)(=O)c2cccnc2)c1.O=C(O)/C=C/C(=O)O` [Vonoprazan, 1-[5-(2-fluorophenyl)-1-(pyridin-3-ylsulfonyl)-1H-pyrrol-3-yl]-N-methylmethanamine fumarate], the “In vivo efficacy (% inhibition)” value in [9] (histamine-induced acid secretion in rats, 2 mg/kg, i.g. (Table 2)) came to 78%. Further, in [9] (rats, i.g. 2 mg/kg), the “Total acid output, histamine-stimulated model” value was 0.29 ± 0.43^∗∗ 10^−4 mol. The IC50 in [1] was 65.5 nM. In addition, the IC50 in data set [10] came out at 47100 nM. In data set [10] (Na+, K+-ATPase over H+, K+-ATPase), this compound displayed a Fold selectivity of 719.4 fold. In data set [11] (2 mg/kg), the “C Stomach/CPlasma” value is 87.0^e. The Kp at 1 h in data set [11] (rat, stomach/plasma, read-out: C Stomach/CPlasma) was 87. For the same compound, in data set [12] (setting [18]), the “C Stomach/CLiver (stomach-liver distribution ratio)” value is recorded as 3.2 and the “C Stomach/CPlasma (stomach-plasma distribution ratio)” value was 165.0. The “C Stomach/CPlasma (stomach-plasma distribution ratio)” value in [12] (AUC0–24, rats, i.g. 2 mg/kg vonoprazan, ref [43], listed as vonoprazan) is 165. Further, in data set [12] (setting [19]), the “Drug concentration, Plasma” value was 11.0^c ng/mL and the “Drug concentration, Stomach” value is given as 957.0^c ng/mL. For the same compound, the “Drug concentration, Plasma” value in data set [12] (rats, 1 h after oral administration of 2.0 mg/kg, ref [40], listed as vonoprazan) is reported as 11 ng/mL. In addition, in data set [12] (setting [20]), the “AUC0–24, Liver” value is recorded as 4039.0 ng equiv. h/mL or g; the “AUC0–24, Plasma” value is listed as 79.0 ng equiv. h/mL or g; the “AUC0–24, Stomach” value is listed as 13085.0 ng equiv. h/mL or g. For the same compound, the “log D7.4” value in data set [13] is recorded as 0.4^a. In [14], the half-life was found to be 5.65 h. For the same compound, in data set [15], the half-life is 0.908 h. In [16], the “Inhibition (%), 2-DG-stimulated model” value is 80% and the “Total acid output, 2-DG-stimulated model” value is listed as 0.62 ± 0.55^∗∗ 10^−4 mol. Further, in data set [17] (100 mg/kg dose of vonoprazan, males), the “ALT and total cholesterol” value is “high ALT and total cholesterol were observed in males”. Besides, in [17], the “no observed adverse effect level (NOAEL)” value is listed as 30 mg/kg.
